Experiments:
Format in all cases: in vivo
Setaria faberi (SETFA) [1] = experiment: Example B pre-emergence herbicidal activity; conditions: 312 h, rate 250 g/ha, evaluated after 13 days, read-out: Pre-Emergence Activity SETFA (100=total damage to plant; 0=no damage to plant)
In short: (§1)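 Pre-emergence spraying at one day, post-emergence at eight days after sowing. Spray solution in acetone/water (50:50) plus 0.5% Tween 20; plants held at 24/16 °C day/night, 14 h light, 65% humidity. Evaluation at 13 days on a 0–100 damage scale.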

[2] = tested on: Alopecurus myosuroides (ALOMY); experiment: Example B pre-emergence herbicidal activity; conditions: 312 h, rate 250 g/ha, evaluated after 13 days, read-out: Pre-Emergence Activity ALOMY (100=total damage to plant; 0=no damage to plant)
In short: as §1

[3] = tested on: Echinochloa crus-galli (ECHCG); experiment: Example B pre-emergence herbicidal activity; conditions: 312 h, rate 250 g/ha, evaluated after 13 days, read-out: Pre-Emergence Activity ECHCG (100=total damage to plant; 0=no damage to plant)
In short: as §1

Avena fatua (AVEFA) [4] = experiment: Example B pre-emergence herbicidal activity; conditions: 312 h, rate 250 g/ha, evaluated after 13 days, read-out: Pre-Emergence Activity AVEFA (100=total damage to plant; 0=no damage to plant)
In short: as §1

[5] = tested on: Amaranthus retoflexus (AMARE); experiment: Example B pre-emergence herbicidal activity; conditions: Amaranthus retroflexus, 312 h, rate 250 g/ha, evaluated after 13 days, read-out: Pre-Emergence Activity AMARE (100=total damage to plant; 0=no damage to plant)
In short: as §1

Setaria faberi (SETFA) [6] = experiment: Example B post-emergence herbicidal activity; conditions: 312 h, rate 250 g/ha, evaluated after 13 days, read-out: Post-emergence activity SETFA (100=total damage to plant; 0=no damage to plant)
In short: as §1

[7] = tested on: Alopecurus myosuroides (ALOMY); experiment: Example B post-emergence herbicidal activity; conditions: 312 h, rate 250 g/ha, evaluated after 13 days, read-out: Post-emergence activity ALOMY (100=total damage to plant; 0=no damage to plant)
In short: as §1

[8] = tested on: Echinochloa crus-galli (ECHCG); experiment: Example B post-emergence herbicidal activity; conditions: 312 h, rate 250 g/ha, evaluated after 13 days, read-out: Post-emergence activity ECHCG (100=total damage to plant; 0=no damage to plant)
In short: as §1

Avena fatua (AVEFA) [9] = experiment: Example B post-emergence herbicidal activity; conditions: 312 h, rate 250 g/ha, evaluated after 13 days, read-out: Post-emergence activity AVEFA (100=total damage to plant; 0=no damage to plant)
In short: as §1

[10] = tested on: Amaranthus retoflexus (AMARE); experiment: Example B post-emergence herbicidal activity; conditions: Amaranthus retroflexus, 312 h, rate 250 g/ha, evaluated after 13 days, read-out: Post-emergence activity AMARE (100=total damage to plant; 0=no damage to plant)
In short: as §1

| Structure (SMILES) | pest or weed control at 250 g/ha (Setaria faberi (SETFA) [1]) | pest or weed control at 250 g/ha [2] | pest or weed control at 250 g/ha [3] | pest or weed control at 250 g/ha (Avena fatua (AVEFA) [4]) | pest or weed control at 250 g/ha [5] | pest or weed control at 250 g/ha (Setaria faberi (SETFA) [6]) | pest or weed control at 250 g/ha [7] | pest or weed control at 250 g/ha [8] | pest or weed control at 250 g/ha (Avena fatua (AVEFA) [9]) | pest or weed control at 250 g/ha [10] |
| --- | --- | --- | --- | --- | --- | --- | --- | --- | --- | --- |
| Cc1sc(-c2ccccc2)nc1C1C(=O)[C@@H]2CC[C@@H](C2)C1=O (some centres unmarked) [Compound T56] | 0% | 0% | 40% | 0% | 0% | 70% | 0% | 60% | 0% | 0% |
| Cc1sc(-c2ccc(F)cc2)nc1C1C(=O)[C@@H]2CC[C@@H](C2)C1=O (some centres unmarked) [Compound T57] | 90% | 60% | 90% | 20% | 0% | 100% | 70% | 100% | 60% | 0% |
| COc1ccc(-c2nc(C3C(=O)[C@@H]4CC[C@@H](C4)C3=O)c(C)s2)cc1 (some centres unmarked) [Compound T58] | 60% | 60% | 100% | 60% | 0% | 100% | 90% | 100% | 80% | 0% |
| Cc1sc(-c2ccc(C(F)(F)F)cc2)nc1C1C(=O)[C@@H]2CC[C@@H](C2)C1=O (some centres unmarked) [Compound T59] | 100% | 80% | 90% | 70% | 0% | 100% | 100% | 100% | 80% | 0% |
| Cc1sc(-c2ccc3ccccc3c2)nc1C1C(=O)[C@@H]2CC[C@@H](C2)C1=O (some centres unmarked) [Compound T63] | 90% | 90% | 100% | 90% | 0% | 100% | 60% | 100% | 70% | 0% |
| Cc1sc(-c2ccc3c(c2)OCCO3)nc1C1C(=O)[C@@H]2CC[C@@H](C2)C1=O (some centres unmarked) [Compound T64] | 0% | 20% | 0% | 0% | 0% | 70% | 0% | 50% | 0% | 0% |
| Cc1sc(-c2ccc(C#N)cc2)nc1C1C(=O)[C@@H]2CC[C@@H](C2)C1=O (some centres unmarked) [Compound T65] | 100% | 50% | 100% | 20% | 20% | 100% | 50% | 100% | 70% | 70% |
| COCOc1ccc(-c2nc(C3C(=O)[C@@H]4CC[C@@H](C4)C3=O)c(C)s2)cc1 (some centres unmarked) [Compound T66] | 30% | 10% | 30% | 0% | 0% | 70% | 10% | 70% | 0% | 0% |
| COc1cc(F)c(-c2nc(C3C(=O)[C@@H]4CC[C@@H](C4)C3=O)c(C)s2)cc1F (some centres unmarked) [Compound T68] | 80% | 60% | 0% | 70% | 0% | 100% | 70% | 100% | 90% | 0% |
| Cc1sc(-c2ccc(F)cc2F)nc1C1C(=O)[C@@H]2CC[C@@H](C2)C1=O (some centres unmarked) [Compound T70] | 100% | 70% | 60% | 30% | 100% | 100% | 90% | 100% | 50% | 40% |
| Cc1sc(-c2cc(Cl)ccc2Cl)nc1C1C(=O)[C@@H]2CC[C@@H](C2)C1=O (some centres unmarked) [Compound T73] | 0% | 0% | 0% | 50% | 0% | 30% | 0% | 20% | 0% | 0% |
| Cc1sc(-c2ccc(Cl)c(C#N)c2)nc1C1C(=O)C2CCC(C2)C1=O (centres unmarked) [Compound T74] | 40% | 30% | 20% | 0% | 100% | 90% | 50% | 70% | 0% | 0% |
| Cc1cc(Cl)ncc1-c1nc(C2C(=O)[C@@H]3CC[C@@H](C3)C2=O)c(C)s1 (some centres unmarked) [Compound T75] | 90% | 0% | 40% | 20% | 0% | 90% | 20% | 70% | 0% | 0% |
| COc1ccc(-c2nc(C3C(=O)[C@@H]4CC[C@@H](C4)C3=O)c(C)s2)cc1F (some centres unmarked) [Compound T76] | 70% | 0% | 50% | 0% | 0% | 80% | 70% | 90% | 50% | 0% |
| CCOc1ccc(-c2nc(C3C(=O)[C@@H]4CC[C@@H](C4)C3=O)c(C)s2)cc1F (some centres unmarked) [Compound T77] | 0% | 0% | 0% | 0% | 50% | 70% | 0% | 60% | 0% | 0% |
| C=Cc1ccc(-c2nc(C3C(=O)[C@@H]4CC[C@@H](C4)C3=O)c(C)s2)cc1 (some centres unmarked) [Compound T78] | 0% | 0% | 0% | 90% | 0% | 80% | 60% | 70% | 0% | 0% |
| CSc1ccc(-c2nc(C3C(=O)[C@@H]4CC[C@@H](C4)C3=O)c(C)s2)cc1 (some centres unmarked) [Compound T81] | 100% | 50% | 100% | 40% | 0% | 100% | 50% | 100% | 50% | 0% |
